Assay [1] has as its target T1, PBCV-1 GTase (Paramecium bursaria Chlorella virus 1, UniProt Q84424). Briefly: Inhibition of the first step of the GTase reaction (E-GMP formation). The conditions noted are these: for Effect on radiolabelled EpG signal: unlabelled nucleotide 2 mM, GTase 10 µM. In kind it is biochemical. More on the design: His-tag; made in house. The method, then:
Inhibition of the first step of the GTase reaction was evaluated by carrying out the standard first step GTase reaction in the presence of 0.2 pmol of [α-^32P] GTP and 2 mM of either unlabelled GTP or each unlabelled nucleotide analogue separately. The IC50 of nucleotide analogues was determined by carrying out the standard first step reaction in the presence of 0.2 pmol of [α-^32P] GTP and increasing concentrations of up to 2 mM of each nucleotide analogue. The reactions were stopped by the addition of EDTA to 10 mM and SDS to 1% and analyzed by electrophoresis through a 12.5% polyacrylamide gel containing 0.1% SDS. The radiolabelled proteins were visualized by autoradiography of the gel. Radiolabelled covalent complex formation was quantified by scanning the gel with a PhosphorImager (Amersham Biosciences).

Assay [2] concerns the target T1, PBCV-1 GTase. In words: In vitro RNA capping efficiency (nuclease P1 / alkaline phosphatase digestion, TLC). The conditions noted are these: for Relative efficiency of RNA capping, 1st and 2nd steps: nucleotide 2 mM, normalized onto the value obtained with GTP.
For assay [3], the target named is T1, PBCV-1 GTase. Briefly: Formation of the covalent enzyme-nucleotide intermediate (SDS-PAGE, Coomassie blue). It is filed as biochemical. Details: His-tag; made in house. Conditions: nucleotide analogue 2 mM, magnesium ions 5 mM. As for the experimental part: The standard first step reaction was carried out in the presence of each nucleotide analogue (2 mM) in the presence or absence of potassium pyrophosphate (1 mM). The reactions were resolved on SDS-PAGE followed by Coomassie blue staining.

For assay [4], the target named is T1, PBCV-1 GTase. In words: Transfer of nucleotide analogues onto internally labelled 50 nt RNA (Urea-PAGE). The conditions noted are these: 32P-internally labelled RNA.
Another assay concerns the target T2, eIF4E protein (Mus musculus, UniProt P63073).
T2 construct: His-tag; made in house; host or cells: bacteria
In words: Binding of free NTP to purified eIF4E (fluorescence saturation isotherm). Details: species or system murine. Conditions: 2 µM protein, pH 8.0.

Where [5] appears, read: read-out: IC50 for E-GMP formation, 1st step, 0.2 pmol [α-32P] GTP, PBCV-1 GTase 10 µM, analogue up to 2 mM, pH 7.5, 1hr at 30°C.

Where two headings read alike, the source gives them in different places.

The term IC50 denotes the point on the concentration scale where inhibition reaches its midpoint.

T1 sequence (Q84424 whole entry): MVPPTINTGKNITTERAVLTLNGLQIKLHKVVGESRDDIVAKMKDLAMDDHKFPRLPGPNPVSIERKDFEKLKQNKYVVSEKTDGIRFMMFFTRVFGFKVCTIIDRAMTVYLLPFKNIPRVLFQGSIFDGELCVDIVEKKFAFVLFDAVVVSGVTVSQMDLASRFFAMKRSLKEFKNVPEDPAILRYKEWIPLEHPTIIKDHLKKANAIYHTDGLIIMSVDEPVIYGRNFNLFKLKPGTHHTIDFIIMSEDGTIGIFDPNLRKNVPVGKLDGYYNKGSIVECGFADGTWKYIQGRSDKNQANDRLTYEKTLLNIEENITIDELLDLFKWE
T2 sequence (P63073 whole entry): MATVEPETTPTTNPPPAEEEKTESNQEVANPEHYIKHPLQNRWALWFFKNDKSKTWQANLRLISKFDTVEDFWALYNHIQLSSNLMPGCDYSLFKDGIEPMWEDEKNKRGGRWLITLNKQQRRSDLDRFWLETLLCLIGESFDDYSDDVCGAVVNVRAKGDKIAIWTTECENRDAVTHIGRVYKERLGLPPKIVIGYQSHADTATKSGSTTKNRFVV
Experimental for eIF4E protein: The binding of RNAs harboring modified RNA cap structures to the eIF4E protein was evaluated by fluorescence spectroscopy as described previously [23]. Briefly, excitation was performed at a wavelength of 290 nm fluorescence using a Hitachi F-2500 fluorescence spectrophotometer. Background emission was eliminated by subtracting the signal from the buffer containing the RNA substrate. The extent to which the RNA binds to purified eIF4E protein was determined by monitoring the fluorescence emission of a fixed concentration of proteins with and without the appropriate RNA (2 µM).
(B) Increasing amounts of NTP were added to a 2 µM solution of the purified protein in a binding buffer (50 mM Tris/HCl, pH 8.0, and 50 mM KOAc) and following excitation of tryptophan residues at 290 nm the emission spectrum was scanned from 310 to 440 nm. […] The data was fit to a binding curve.

Consider `Nc1nc2c(nc(I)n2[C@@H]2O[C@H](COP(=O)(O)OP(=O)(O)OP(=O)(O)O)[C@@H](O)[C@H]2O)c(=O)[nH]1` [A14, 8-Iodo GTP], for which the IC50 on PBCV-1 GTase [1] (setting [5]) turned out to be 420 µM. For the same compound, the “Relative efficiency of RNA capping, 1st and 2nd steps” value (“Relative efficiency of RNA capping” below) on PBCV-1 GTase [2] was 1.0.

Take `O=c1[nH]cnc2c1ncn2[C@@H]1O[C@H](COP(=O)(O)OP(=O)(O)OP(=O)(O)O)[C@@H](O)[C@H]1O` [A2, ITP]: at PBCV-1 GTase [1] (setting [5]), the IC50 amounted to 340 µM. In addition, the “Covalent intermediate: slower migrating species on SDS-PAGE” value on PBCV-1 GTase [3] is “appearance of a slower migrating species”. Also, on PBCV-1 GTase [4], the “Formation of capped RNA (slower migrating species)” value is “formation of a slower migrating species corresponding to the capped RNA”. Further, at PBCV-1 GTase [2], the “Relative efficiency of RNA capping” value stood at 1.3.

`Nc1nc(N)c2ncn([C@@H]3O[C@H](COP(=O)(O)OP(=O)(O)OP(=O)(O)O)[C@@H](O)[C@H]3O)c2n1` [A4, 2-Amino ATP]: the IC50 at PBCV-1 GTase [1] (setting [5]) is over 2000 µM.

Regarding `CSc1ncnc2c1ncn2[C@@H]1O[C@H](COP(=O)(O)OP(=O)(O)OP(=O)(O)O)[C@@H](O)[C@H]1O` [A10, 6-Me thio ITP], the IC50 on PBCV-1 GTase [1] (setting [5]) came to 1200 µM. Further, the “Transferability of covalent intermediate onto RNA” value at PBCV-1 GTase [2] (5’-α terminally labelled RNA, TLC) was “clearly not transferable onto RNA”.

With `COc1nc(N)nc2c1ncn2[C@@H]1O[C@H](COP(=O)(O)OP(=O)(O)OP(=O)(O)O)[C@@H](O)[C@H]1O` [A7, O6-Me GTP], the IC50 at PBCV-1 GTase [1] (setting [5]) amounted to 150 µM. Moreover, at PBCV-1 GTase [2], the “Relative efficiency of RNA capping” value was 0.48; the “RNA capping (transfer onto RNA) relative to GTP” value is ~ 50%.

Turning to `Nc1ncnc2c1ncn2[C@@H]1O[C@H](COP(=O)(O)OP(=O)(O)OP(=O)(O)O)[C@@H](O)[C@H]1O` [ATP, reference compound], the IC50 at PBCV-1 GTase [1] (0.2 pmol [α-32P] GTP, PBCV-1 GTase 10 µM, analogue up to 2 mM, pH 7.5, 1hr at 30°C, read-out: IC50 for E-GMP formation, 1st step) is over 2000 µM. In addition, the “Effect on radiolabelled EpG signal” value on PBCV-1 GTase [1] is listed as “no apparent effect”. For the same compound, the “Formation of capped RNA (slower migrating species)” value at PBCV-1 GTase [4] is listed as “no effect”.

In the case of `Cn1c(N)nc2c(ncn2[C@@H]2O[C@H](COP(=O)(O)OP(=O)(O)OP(=O)(O)O)[C@@H](O)[C@H]2O)c1=O` [A1, N1-Me GTP], the IC50 on PBCV-1 GTase [1] (setting [5]) amounted to 80 µM. Further, the “Covalent intermediate: slower migrating species on SDS-PAGE” value on PBCV-1 GTase [3] is recorded as “appearance of a slower migrating species”. The “Relative efficiency of RNA capping” value at PBCV-1 GTase [2] is reported as 1.1.

In the case of `Nc1nc2c(ccn2[C@@H]2O[C@H](COP(=O)(O)OP(=O)(O)OP(=O)(O)O)[C@@H](O)[C@H]2O)c(=O)[nH]1` [A16, 7-deaza GTP], the IC50 on PBCV-1 GTase [1] (setting [5]) was over 2000 µM.

Take `Nc1nc2c(nc(Br)n2[C@@H]2O[C@H](COP(=O)(O)OP(=O)(O)OP(=O)(O)O)[C@@H](O)[C@H]2O)c(=O)[nH]1` [A13, 8-Bromo GTP]: the IC50 on PBCV-1 GTase [1] (setting [5]) is 1500 µM. In addition, the “Relative efficiency of RNA capping” value on PBCV-1 GTase [2] is recorded as 0.40.

With `O=P(O)(O)OP(=O)(O)OP(=O)(O)OC[C@H]1O[C@@H](n2cnc3c(Cl)ncnc32)[C@H](O)[C@@H]1O` [A11, 6-Cl purine RTP], on PBCV-1 GTase [1] (setting [5]), the IC50 is over 2000 µM.

As to `Nc1nc2c(ncn2[C@@H]2O[C@H](COP(=O)(O)OP(=O)(O)OP(=O)(O)O)[C@@H](O)[C@H]2O)c(=O)[nH]1` [GTP, reference compound], the “Kd for purified eIF4E” value on eIF4E protein was “much higher apparent binding constant”. Moreover, on PBCV-1 GTase [1], the IC50 turned out to be 100 µM and the “Effect on radiolabelled EpG signal” value is on record as “maximum loss of the radiolabelled EpG signal”. In addition, the “Formation of capped RNA (slower migrating species)” value on PBCV-1 GTase [4] is “formation of a slower migrating species corresponding to the capped RNA”. Also, the “Fraction of capped RNA over the total transcripts” value at PBCV-1 GTase [2] (cap donor 2 mM) was 0.35 ±0.05. Besides, at PBCV-1 GTase [2], the “Relative efficiency of RNA capping” value is reported as 1.0.

Turning to `CSc1nc(N)nc2c1ncn2[C@@H]1O[C@H](COP(=O)(O)OP(=O)(O)OP(=O)(O)O)[C@@H](O)[C@H]1O` [A8, 6-Me thio GTP], the IC50 at PBCV-1 GTase [1] (setting [5]) came out at 430 µM. For the same compound, the “Relative efficiency of RNA capping” value on PBCV-1 GTase [2] came out at 0.07.

On to `Nc1nc(Cl)c2ncn([C@@H]3O[C@H](COP(=O)(O)OP(=O)(O)OP(=O)(O)O)[C@@H](O)[C@H]3O)c2n1` [A5, 2-Amino-6 Cl purine RTP], for which the IC50 on PBCV-1 GTase [1] (setting [5]) came to 160 µM. On PBCV-1 GTase [2], the “Relative efficiency of RNA capping” value was found to be 0.08; the “RNA capping (transfer onto RNA) relative to GTP” value came to 8%.

Source of the values: paper PMC3783409, “Enzymatic Synthesis of RNAs Capped with Nucleotide Analogues Reveals the Molecular Basis for Substrate Selectivity of RNA Capping Enzyme: Impacts on RNA Metabolism” (PLoS ONE, 2013).
